Where two headings read alike, the source gives them in different places.
How the values were obtained:
[1] = system: Streptococcus mutans; assay: anti-bacterial growth inhibition, S. mutans; format: cell-based; settings: Streptococcus mutans; for inhibition at 25 µM: read-out: Inhibition rate (25 μM); for inhibition at 50 µM: read-out: Inhibition rate (50 μM); for inhibition at 100 µM: read-out: Inhibition rate (100 μM)
Description: (§1) Evaluation of anti-bacterial activity. In a single well of the 96-well microplate, 10 μL of the testing compound is added into 190 μL of growth medium growth medium (BBL™ Brain Heart Infusion) containing an overnight culture of Streptococcus mutans or Streptococcus sobrinus at a density of approximately 5×10^5 CFU. The testing compounds include dihydro-resveratrol and DR1 to DR11. Wells incubated with 10 μL 0.5% DMSO only (i.e. no testing compound) are served as the experimental control of bacterial growth whilst those incubated with growth medium only (i.e. no bacteria) are served as the negative control. […] The percentage of growth inhibition of S. mutans by the different concentrations of testing compounds is shown in Table 12 whereas the percentage of growth inhibition of S. sobrinus is shown in Table 13. The images of S. mutans culture are captured post treatment of dihydro-resveratrol (100 μM) and DR8 (100 μM) when compared to the growth of experimental control and negative control (FIG. 31).

[2] = system: Trichophyton mentagrophytes; assay: anti-fungal growth inhibition, T. mentagrophytes; format: cell-based; settings: Trichophyton mentagrophytes, 168 h; for inhibition at 25 µM: read-out: Inhibition rate (25 μM); for inhibition at 50 µM: read-out: Inhibition rate (50 μM); for inhibition at 100 µM: read-out: Inhibition rate (100 μM)
Description: (§2) Evaluation of anti-fungal activity. In a single well of the 96-well microplate, 10 μL of the testing compound is added into 190 μL of growth medium (Difco™ YM) containing an overnight culture of Trichophyton rubrum or Trichophyton mentagrophytes at a density of approximately 5×10^5 CFU. The testing compounds include dihydro-resveratrol and DR1 to DR11. Wells incubated with 10 μL 0.5% DMSO only (i.e. no testing compound) are served as the experimental control of fungal growth whilst those incubated with growth medium only (i.e. no fungi) are served as the negative control. […] The percentage of growth inhibition of T. mentagrophytes by the different concentrations of testing compounds is shown in Table 10 whilst the percentage of growth inhibition of T. rubrum is shown in Table 11. The images of T. mentagrophytes culture are captured post treatment of dihydro-resveratrol (100 μM) and DR8 (100 μM) when compared to the growth of experimental control and negative control (FIG. 30).

[3] = ABTS radical decolorization assay (antioxidant capacity); format: biochemical; settings: 15 min, 734 nm
[4] = system: Trichophyton rubrum; assay: anti-fungal growth inhibition, T. rubrum; format: cell-based; settings: Trichophyton rubrum, 168 h; for inhibition at 25 µM: read-out: Inhibition rate (25 μM); for inhibition at 50 µM: read-out: Inhibition rate (50 μM); for inhibition at 100 µM: read-out: Inhibition rate (100 μM)
Description: as §2

[5] = system: Streptococcus sobrinus; assay: anti-bacterial growth inhibition, S. sobrinus; format: cell-based; settings: Streptococcus sobrinus; for inhibition at 25 µM: read-out: Inhibition rate (25 μM); for inhibition at 50 µM: read-out: Inhibition rate (50 μM); for inhibition at 100 µM: read-out: Inhibition rate (100 μM)
Description: as §1

[6] = system: HCT-116 human colorectal carcinoma xenograft tumor; assay: HCT-116 nude mouse xenograft model; format: in vivo, BALB/c nude mice; settings: i.p. every other day, 5-FU 25 mg/kg, D-res 100 mg/kg
Text: All animal studies were approved and performed according to Animal Care and Use Guidelines of the Animal Ethics Committee at Hong Kong Baptist University. BALB/c nude mice, SPF class, male, 6-8 weeks old, were purchased from BioLASCO, Taiwan. Before the xenograft experiment, the mice were acclimatized to SPF class laboratory conditions for a week.
HCT-116 cells in logarithmic growth phase were collected by trypsinization. After centrifugation and rinsing, cells were re-suspended in serum-free DMEM medium at 3×10^7 cells/mL. Nude mice were skin disinfected with 75% medical ethanol, subcutaneously injected with 100 μL of the HCT-116 cell suspension using a 25-G syringe to their left flank. The same procedure was repeated for the tumor cell injection to the right flank.
Seven days after tumor cell injection, 24 mice with tumor volumes of 32 mm^3 to 178 mm^3 were randomly assigned into 3 groups; the average initial tumor volumes in each group of mice were 78.04±7.76 mm^3 (vehicle, 8 mice), 78.76±9.40 mm^3 (5-FU, 8 mice), 78.01±7.75 mm^3 (D-res, 8 mice) respectively.
Vehicle solution: 2.5% Ethanol and Cremphor EL (1:1 v/v) dissolved in physiological saline.
5-FU solution: 5-FU powder was dissolved in 2.5% Ethanol and Cremphor EL to a concentration of 5 mg/mL.
D-res solution: Dihydro-resveratrol powder was dissolved in 2.5% Ethanol and Cremphor EL solution to a concentration of 20 mg/mL.
Vehicle group (n=8): 2.5% Ethanol and Cremphor EL solution was intraperitoneally injected every other day for 21 days.
5-FU group (n=8): 5-FU solution was given to mice at 25 mg/kg by intraperitoneal injection every other day for 21 days.
D-res group (n=8): D-res solution was given to mice at 100 mg/kg by intraperitoneal injection every other day for 21 days. This is equivalent to a dosage of no less than 8.13 mg/kg of bodily weight in human.

[7] = S. mutans, 25 μM, 10 hours, 30° C., OD 600 nm
[8] = S. mutans, 50 μM, 10 hours, 30° C., OD 600 nm
[9] = S. mutans, 100 μM, 10 hours, 30° C., OD 600 nm
[10] = T. mentagraphytes, 25 μM, one week, 30° C., OD 510 nm
[11] = T. mentagraphytes, 50 μM, one week, 30° C., OD 510 nm
[12] = T. mentagraphytes, 100 μM, one week, 30° C., OD 510 nm
[13] = T. rubrum, 25 μM, one week, 30° C., OD 510 nm
[14] = T. rubrum, 50 μM, one week, 30° C., OD 510 nm
[15] = T. rubrum, 100 μM, one week, 30° C., OD 510 nm
[16] = S. sobrinus, 25 μM, 10 hours, 30° C., OD 600 nm
[17] = S. sobrinus, 50 μM, 10 hours, 30° C., OD 600 nm
[18] = S. sobrinus, 100 μM, 10 hours, 30° C., OD 600 nm

SMILES	inhibition at 25 µM [1, 7] [%]	inhibition at 50 µM [1, 8] [%]	inhibition at 100 µM [1, 9] [%]	inhibition at 25 µM [2, 10] [%]	inhibition at 50 µM [2, 11] [%]	inhibition at 100 µM [2, 12] [%]	Trolox equivalent (mg), antioxidant capacity [3] [mg]	inhibition at 25 µM [4, 13] [%]	inhibition at 50 µM [4, 14] [%]	inhibition at 100 µM [4, 15] [%]	inhibition at 25 µM [5, 16] [%]	inhibition at 50 µM [5, 17] [%]	inhibition at 100 µM [5, 18] [%]	other results
O=C(Oc1ccc(CCc2cc(OC(=O)c3ccccc3)cc(OC(=O)c3ccccc3)c2)cc1)c1ccccc1 [DR7]	10.1	1.55	2.48	3.79	0.44	18.6	0	3.06	6.17	11.6	6.33	14.2	12.5	
O=c1[nH]cc(F)c(=O)[nH]1 [Compound 5-FU, fluorouracil, reference compound]														Tumor Volume (mm^3) ([6]; Day 1 (initial)): 78.76 ± 9.40 mm^3; Tumor Volume (mm^3) ([6]; Day 4): 128.05 ± 12.25 mm^3; Tumor Volume (mm^3) ([6]; Day 7): 187.75 ± 21.56 mm^3; Tumor Volume (mm^3) ([6]; Day 10): 286.6 ± 28.89 mm^3; Tumor Volume (mm^3) ([6]; Day 13): 419.1 ± 45.77 mm^3; Tumor Volume (mm^3) ([6]; Day 16): 489.8 ± 160.66 mm^3; Tumor Volume (mm^3) ([6]; Day 19): 514.17 ± 160.66 mm^3; Tumor Volume (mm^3) ([6]; Day 21): 583.6 ± 160.66 mm^3; Tumor Volume (mm^3) ([6]; Day 22): 655.69 ± 160.66 mm^3; Tumor weight ([6]; treated for 21 days): 0.68 ± 0.08 g
O=C(Cc1ccccc1)Oc1ccc(CCc2cc(OC(=O)Cc3ccccc3)cc(OC(=O)Cc3ccccc3)c2)cc1 [DR10]							0							inhibition at 25 µM ([1]; 10 h): 3.42%; inhibition at 50 µM ([1]; 10 h): 3.56%; inhibition at 100 µM ([1]; 10 h): 2.44%; inhibition at 25 µM [2]: 3.14%; inhibition at 50 µM [2]: 12.6%; inhibition at 100 µM [2]: 20.9%; inhibition at 25 µM [4]: 8.53%; inhibition at 50 µM [4]: 6.36%; inhibition at 100 µM [4]: 10.7%; inhibition at 25 µM ([5]; 10 h): 13.8%; inhibition at 50 µM ([5]; 10 h): 11.3%; inhibition at 100 µM ([5]; 10 h): 15.8%
C=CCOc1ccc(CCc2cc(OCC=C)cc(OCC=C)c2)cc1 [DR3]	4.18	2.61	7.05	4.64	4.77	20.1	119.325	4.55	4.25	22.3	11.7	24.2	21.1	
O=C(Oc1ccc(CCc2cc(OC(=O)c3ccc(Cl)cc3)cc(OC(=O)c3ccc(Cl)cc3)c2)cc1)c1ccc(Cl)cc1 [DR5]	2.67	8.35	2.22	3.01	6.93	14.1	0	0.71	4.25	5.78	12.2	26.2	18.6	
CCCC(=O)Oc1ccc(CCc2cc(OC(=O)CCC)cc(OC(=O)CCC)c2)cc1 [DR4]	6.64	3.99	6.35	6.03	10.4	32.6	94.277	11.2	16.6	36.1	7.35	20.6	18.1	
CC(C)(C)C(=O)Oc1ccc(CCc2cc(OC(=O)C(C)(C)C)cc(OC(=O)C(C)(C)C)c2)cc1 [DR11]	5.49	6.86	4.13	13.1	13.4	9.36	0	8.1	7.58	9.54	10.5	12.6	0.18	
O=C(Oc1ccc(CCc2cc(OC(=O)C3CCCC3)cc(OC(=O)C3CCCC3)c2)cc1)C1CCCC1 [DR9]	0.68	6.36	8.39	2.19	14.7	25.9	0	7.05	2.57	1.5	14.3	0.13	9.87	
COc1ccc(C(=O)Oc2ccc(CCc3cc(OC(=O)c4ccc(OC)cc4)cc(OC(=O)c4ccc(OC)cc4)c3)cc2)cc1 [DR6]	6.52	4.36	5.96	3.33	8.01	21.6	0	5.81	2.49	20.9	5.99	15.7	7.54	
